For one assay, the system named is SET-2 cells. In words: SET-2 xenograft model. Conditions: for tumor growth inhibition: Compound 1 10 mg/kg QD, or both, oral.
For the next assay, the system named is myelofibrosis. As to conditions: ruxolitinib monotherapy in clinical trials; cited from earlier work.
The subject of assay [1] is MPLW515L expressing bone marrow. In words: MPLW515L mouse model of MPN. As to conditions: Compound 1 10 mg/kg QD, ruxolitinib 60 mg/kg BID, or both; oral, 14 days.

On to `N#CC[C@H](C1CCCC1)n1cc(-c2ncnc3[nH]ccc23)cn1` [ruxolitinib, (3R)-3-cyclopentyl-3-[4-(7H-pyrrolo[2,3-d]pyrimidin-4-yl)-1H-pyrazol-1-yl]propanenitrile], for which the tumor growth inhibition result is recorded as “significantly inhibited tumor growth” in the assay with SET-2 cells (ruxolitinib 30 mg/kg BID, 14 days) and “significant tumor growth inhibition” in the assay with SET-2 cells (ruxolitinib 60 mg/kg BID, 11 days). Also, the “Fa (tumor growth inhibition level), SET-2” value in the assay on SET-2 cells (table head: ruxolitinib 60 mg/kg BID, Compound 1 10 mg/kg QD, combination) is 0.44. The “reduction in spleen size” value in the assay with myelofibrosis was “about 35%”. For the same compound, the spleen size entry in assay [1] is listed as “able to reduce spleen size”. Besides, the “white blood cell count” value in assay [1] is “more profound effect on white blood cell count reduction than Compound 1”.
